Data taken from patent publication US20050214898A1, “Methods of carotenoid production in bacteria” (priority 2004, published 2005).
Several values for one entry are separate records, joined by “and”; a condition that tells them apart may be missing. Identical values can stand only once. Entries after “also recorded” stand apart in the source; their conditions may differ.

How the values were obtained:
F. multivorum ATCC 55238 = experiment: Effect of salt supplementation of the basal medium on growth and carotenoid production (shake flask); type: cell-based, Flavobacterium multivorum; conditions: for effect on growth: basal medium supplemented with salt; for effect on the volumetric production of β-carotene / β-carotene as proportion of the total carotenoid content: basal medium supplemented with salt 250 mg/100 ml
Method: (§1) Pigment extraction from bacterial cells. One ml of culture broth was centrifuged at 5000 rpm for 10 min at 4° C. The supernatant was discarded and media components of the cell pellet were washed away by repeated suspension in sterile distilled water and centrifugation. The cell mass was subjected to sonication using a sonic dismembrator (Fisher Scientific, Model number F60) in the presence of 1 ml cold, oxygen-free methanol containing 0.01% butylated hydroxy toluene (BHT) (w/v) for 30 seconds (output power 5). Methanol extraction was repeated for complete extraction of carotenoids. The sonicated sample was centrifuged to remove the white cell pellet. The supernatant contains extracted carotenoids.
(§2) High performance liquid chromatography (HPLC). The pigments in methanol were dried by vacuum evaporation in a Speedvac Plus (SC 110, Savant) and re-dissolved in one ml of HPLC mobile phase (hexane: dichloromethane: methanol: N,N′-di-isopropylethylamine (80:19.2:0.7:0.1 v/v)). HPLC separation was carried out at a flow rate of 1.0 ml min^−1 on a cyano column (Microsorb 25 cm length×4.6 mm id, Rainin Instrument Co. Woburn, Mass., U.S.A.). The column was maintained at room temperature and the HPLC detector was operated at 450 nm. Peak identities were confirmed by photodiode-array spectra and by coelution with authentic standards as necessary.
Cell growth measurement. Cell growth was monitored by measurement of turbidity at […] with a UV-visible spectrophotometer (Smart Spec™ 3000, BioRad). Samples were suitably diluted (so as to have absorbance of between 0.2 to 0.8) with double distilled water. The absorbance was measured immediately at 500 nm. For cell dry weight (CDW) estimation, the 10 ml sample was centrifuged at 10,000 g for 10 minutes and washed twice with double distilled water by suspension and centrifugation. The supernatant was discarded and the cell pellet was taken to constant weight in an oven at 80° C.
Effect of salt supplementation. F. multivorum was studied for growth and carotenoid production in the liquid basal medium supplemented with the salts listed in Table 1 (see, FIG. 7) (250 mg/100 ml) to evaluate the effect of mineral salts. The F. multivorum cultures were grown in quadruplicate in shake flask cultures at 30° C. on a rotary shaker rotates at 250 rpm.

F. multivorum = experiment: Effect of TCA cycle intermediates in the growth medium on zeaxanthin production; type: cell-based, Flavobacterium multivorum; conditions: growth medium supplemented with TCA intermediate
Method: as §1
as §2, with “nm.” for “nm. Peak identities were confirmed by photodiode-array spectra and by coelution with authentic standards as necessary.”
Media optimization for zeaxanthin production.

Structure (SMILES)	effect on growth (F. multivorum ATCC 55238)	effect on the volumetric production of β-carotene (F. multivorum ATCC 55238)	β-carotene as proportion of the total carotenoid content (F. multivorum ATCC 55238)	effect on the volumetric production of zeaxanthin (F. multivorum)	other results
NC(N)=O [Urea, urea]	minor inhibition on growth	maximum stimulatory effect	66 % (w/w)	–	effect on the volumetric production of β-carotene (F. multivorum ATCC 55238; listed as urea): positive effect; β-carotene as proportion of the total carotenoid content (F. multivorum ATCC 55238; listed as urea): 70 % (w/w)
O=C([O-])[O-].[Na+].[Na+] [sodium carbonate]	minor inhibition on growth	positive effect; also recorded: maximum stimulatory effect	70 % (w/w) and 69 % (w/w)	–	–
O=C(O)CC(C(=O)O)C(O)C(=O)O (stereo not drawn) [Isocitric acid, isocitric acid]	–	–	–	maximum stimulatory effect	–
[Ca+2].[Cl-].[Cl-] [calcium chloride]	minor inhibition on growth	maximum stimulatory effect	52 % (w/w)	–	–
[Cl-].[Li+] [Lithium chloride]	–	–	–	–	maximum β-carotene level (proportion of total carotenoid) (F. multivorum ATCC 55238; at 24 h of growth phase): 44 %, w/w; β-carotene level (proportion of total carotenoid) (F. multivorum ATCC 55238; end of fermentation (48 h)): 21 % (w/w)
O=C(O)CC(O)C(=O)O (stereo not drawn) [malic acid]	–	–	–	maximum stimulatory effect	–
